This note sets out measurements from a melting point compilation (Tetko et al.; mined from patent text by program, amines drawn as free bases though some values may be those of a salt).

The molecule `Cc1nc2cc(NC(=O)c3cc4cccnc4n3-c3ccncc3)ccc2s1` yielded a melting point of 236 to 238 °C.

The molecule `CN1CCN(CCCCCNc2ncc3cc(-c4c(Cl)cccc4Cl)c(=O)n(C)c3n2)CC1` yielded a melting point of 110 to 112 °C.

`O=C(Nc1cccc(F)c1)Nc1cnnc(Cl)c1` returned a melting point of 293 to 296 °C.

Molecule `COc1c(C#N)cc([N+](=O)[O-])cc1C#N` showed a melting point of 144 to 148 °C.

As for `COc1ccc(S(=O)(=O)CCCc2ccc(CC(=O)O)cc2)cc1`, the melting point lay within 149 to 150 °C.

Turning to `COC(=O)C(=CN(C)C)c1cc(F)cc(F)c1`, the melting point was 97 °C.

For the molecule `CC(C)(C)C(=O)C(Br)Oc1ccc(Cl)cc1Cl` (stereo not drawn), the melting point was 70 °C.

`CCOC(=O)c1c[nH]c2cc(Cl)c(F)c(NCC=O)c2c1=O` showed a melting point of 213 to 216 °C.

As for `O=c1c2c(c1=O)N(CCCP(=O)(O)O)CCCN2`, the melting point was in the range of 244 to 248 °C.

On to `CC(C)[C@H]1c2ccc(F)cc2CC[C@]1(O)CCNCc1nc2ccccc2s1`, for which the melting point is 102 to 103 °C.

The molecule `CCCCN1CCn2c1nc(C(=O)NCc1ccc(F)cc1-n1cnc(C)n1)c(OCc1ccccc1)c2=O` had a melting point of 172 to 173 °C.

`O=C(N[C@H]1CC[C@H](CCN2CCC(c3cccc4c3CCO4)CC2)CC1)C1CC1`: the melting point was determined as 208 °C.

The molecule `Cc1ccc(Oc2ccc(C(=O)c3ccc(Oc4ccc(C)c(C)c4)cc3)cc2)cc1C` had a melting point of 68 to 69 °C.

With `CCn1c(C)nc2cc(C(=O)OC)ccc21`, the melting point was 118 to 121 °C.

The molecule `CCCn1c(=O)c2[nH]c(/C=C/c3ccc(OC)c(Br)c3)nc2n(CCC)c1=O` gave a melting point of 280 to 281 °C.

In turn, `CN1CCN(CC(=O)N2c3ccccc3N(C)S(=O)(=O)c3ccccc32)CC1` displayed a melting point of 143 to 144 °C.

Regarding `CCC(CC)n1c(N)nc2c(Oc3c(C)cc(C)cc3C)nc(C)cc21`, the melting point lay within 208 to 210 °C.

On to `O=C(CSc1nc[nH]n1)c1ccccc1`, for which the melting point is 119 to 120 °C.

`CCCCc1nn(-c2ccc(C(F)(F)F)cn2)cc1CCCOc1c(CC(=O)O)cccc1OC` registered a melting point of 121 to 122 °C.

The molecule `ON=C1CCOc2cc(Cl)c(Cl)cc21` showed a melting point of 192 to 193 °C.

Turning to `CNC1=Nc2sc(Cl)cc2C(c2ccccc2)=NC1`, the melting point was in the range of 247 to 250 °C.

The molecule `CC(=O)OCC1CC(n2c(=S)[nH]c3cc(Cl)c(Cl)cc32)C(OC(C)=O)C1OC(C)=O` (stereo not drawn) showed a melting point of 208 to 209 °C.

Molecule `CN(C)CC1Cn2cc(C(=O)NCc3ccc(Cl)cc3)c(=O)c3cc(CN4CCOCC4)cc(c32)O1` (stereo not drawn) registered a melting point of 168 to 170 °C.

In turn, `CN(CC(=O)OC(C)(C)C)C[C@@H]1CC(c2ccc(-c3ccc(N4C[C@H](Cn5ccnn5)OC4=O)cc3F)cn2)=NO1` came in with a melting point of 180 °C.

The molecule `COc1ccc2c(c1)[C@H]1Cc3c(cc(C)c(OC)c3C)[C@H]1N2` (relative stereo) displayed a melting point of 149 to 150 °C.

The molecule `COc1cc2c(cc1OC)C(c1sc(O)nc1C)=NCC2` yielded a melting point of 114 to 120 °C.

Regarding `N#CCSC(=O)c1ccc(C#N)cc1`, the melting point was 132 to 134 °C.

As to `O=c1[nH]c2scnc2c2c(O)cccc12`, the melting point was above 250 °C.

For `CC(C#N)(c1ccccc1)c1ccc([N+](=O)[O-])cc1` (stereo not drawn), the melting point was 76 to 78 °C.

On to `COc1ccc(CN2C=CC=C3C2=Nc2cc(OC)ccc2S(=O)(=O)N3C)cc1`, for which the melting point lay within 179 to 180 °C.

In turn, `COc1ccc(C(=O)Cc2ccc(Br)cc2)c(Cl)c1Cl` displayed a melting point of 163 to 164 °C.

`COc1ccc2c3c(cn2S(=O)(=O)c2c(C(C)C)cc(C(C)C)cc2C(C)C)C[C@H]2N(C)C(=O)CO[C@]2(C)c13` (relative stereo) had a melting point of 155 to 157 °C.

Molecule `CC[C@H](C)[C@H](NS(=O)(=O)c1cccc2ccccc12)C(=O)N[C@@H](Cc1c[nH]c2ccccc12)C(=O)O` came in with a melting point of 167 to 168 °C.

`NC(=O)N1C(=O)C(C(=O)c2cccs2)c2nc(Cl)c(Cl)cc21` (stereo not drawn) came in with a melting point of 237 to 240 °C.

The molecule `CCN1CC(NC(=O)Nc2cc(Cl)cc(Cl)c2)CN1CC` displayed a melting point of 165 to 167 °C.

For `O=C(NC1CCN(CCCC(O)c2ccccc2)CC1)c1ccccc1` (stereo not drawn), the melting point lay within 155 to 156 °C.

As to `CC(=O)NCCOC(c1ccc(F)cc1)c1ccc(F)cc1`, the melting point lay within 112 to 114 °C.

For `NC(=O)c1cc(=O)c(-c2ccccc2)co1`, the melting point lay within 245 to 248 °C.

Molecule `COc1ccc(-c2cccc3c2C(=O)OC(C)(C)O3)cn1` came in with a melting point of 160 °C.

The molecule `CCc1cc(C(=O)c2ccccc2Cl)c(-n2c(C)nnc2CCl)s1` yielded a melting point of 109 to 110 °C.

Molecule `NC(=O)N1CCC(=O)C(C(c2ccccc2)c2ccccc2)C1` (stereo not drawn) came in with a melting point of 88 to 89 °C.

Consider `CSc1nc2cc(C(F)(F)F)ccc2n1N`, for which the melting point fell in the range of 170 to 173 °C.

Consider `CNC(=O)C(CC(=O)N(CC(=O)NO)CC(C)C)CC(C)C` (stereo not drawn), for which the melting point lay in the range of 60.5 to 61.5 °C.

Consider `CCCCOc1ccc(S(=O)(=O)NC(=NO)Nc2ccc(Cl)cc2)cc1`, for which the melting point lay in the range of 175 to 176 °C.

Take `COc1cc(C(C)C)c2c(c1)S(=O)(=O)N(COc1cc(C(F)(F)F)nn1-c1ccc(Cl)cc1)C2=O`: the melting point was in the range of 160 to 161 °C.

In turn, `O=C1N(Cc2ccc3nsnc3c2)c2ccccc2C12COc1cc3c(cc12)CCO3` (stereo not drawn) showed a melting point of 162 to 164 °C.

As for `CCOC(=O)c1cnn(-c2ccc(C(F)(F)F)cc2[N+](=O)[O-])c1N`, the melting point fell in the range of 118 to 121 °C.

Turning to `C=CCn1c(C(F)(F)F)nc2cc(-n3c(=O)cc(C(F)(F)F)n(C)c3=O)ccc21`, the melting point was 185 to 187 °C.

Molecule `CCOc1cc([C@@H](CC(=O)N(C)C)N2Cc3cccc(NCC(C)(C)C)c3C2=O)ccc1OC` had a melting point of 111 to 113 °C.

`CC(C)(C)OC(=O)NCCCCCC(=O)OCC1OC(n2cc(C=CBr)c(=O)[nH]c2=O)CC1O` (stereo not drawn): the melting point is 204 to 205 °C.

Consider `CC(C)(C)c1cccc(S(=O)(=O)n2c(C(O)c3ccc(C(=O)O)cc3)cc3cc(C(F)(F)F)ccc32)c1` (racemic), for which the melting point came out at 110 °C.

Consider `CS(=O)(=O)c1ccc(-c2cc(C#N)c(Br)nc2-c2ccc(F)cc2)cc1`, for which the melting point lay in the range of 230 to 232 °C.

Regarding `O=c1cc2c(n[nH]1)-c1ccc(O)cc1CC2`, the melting point is 300 °C.

In turn, `CCC(=O)Nc1c(C)c(C)c2c(c1C)C(c1ccc(C(C)C)cc1)CO2` (stereo not drawn) gave a melting point of 164 to 165 °C.

`Cc1ccc(Cc2cnc(CCCOc3cccc(CN4CCCCC4)c3)[nH]c2=O)cn1` yielded a melting point of 137 to 138 °C.

With `CCOC(=O)[C@H](Cc1ccc(-c2c(OC)cc(COS(C)(=O)=O)cc2OC)cc1)NC(=O)c1c(F)cccc1Cl`, the melting point is 104 to 107 °C.

`CS(=O)(=O)c1ccc(-c2nc3cc(C4CCN(S(=O)(=O)CCCO)CC4)ccc3o2)c(F)c1` displayed a melting point of 204 to 206 °C.

Consider `C=CCc1cc(CC(N)=O)ccc1OCC(O)CNCCC(=O)OCC` (stereo not drawn), for which the melting point is 98 °C.

`CCOC(=O)c1c(N(C)C)c2cc(C)ccc2n(Cc2ccccc2)c1=O` displayed a melting point of 96 to 103 °C.

On to `Cc1c(F)c(F)c(O)c2c(=O)c(C(=O)O)cn(-c3cc(N)c(F)cc3F)c12`, for which the melting point is above 280 °C.

In turn, `CCCCC1c2ccccc2-c2cc(Br)ccc2N1S(=O)(=O)c1ccc(OC)cc1` (stereo not drawn) returned a melting point of 108 to 111 °C.

Molecule `CC(C)Cn1c(CNC(=O)OC(C)(C)C)c(-c2ccccc2)c2cc(OCc3ccccc3)ccc2c1=O` had a melting point of 141 to 142 °C.

The molecule `Cc1coc2ncnc(N)c12` had a melting point of 240 to 242 °C.

`O=C(CC(c1cc(F)ccc1F)S(=O)(=O)c1ccc(Cl)cc1)N1CCCC1` (stereo not drawn) showed a melting point of 122 to 125 °C.

Turning to `CCCCc1cn(Cc2ccc(-c3ccccc3C(=O)OC)cc2)c2cc(CO)ccc2c1=O`, the melting point is 140 °C.

`COC(=O)c1c(O)cc(OCC(=O)c2ccc3c(c2)C(C)(C)CCC3(C)C)cc1O`: the melting point fell in the range of 162 to 163 °C.

The molecule `Nc1cc2[nH]c(=O)[nH]c2c2ccccc12` came in with a melting point of 295 to 296 °C.

Regarding `CON(c1ccc([N+](=O)[O-])cc1Cl)S(=O)(=O)c1cc(Cl)ccc1Cl`, the melting point was 132 to 133 °C.

In turn, `COc1c(-c2ccc3cc(NS(C)(=O)=O)ccc3c2)cc(NC(N)=O)cc1C(C)(C)C` returned a melting point above 300 °C.

`COc1cc(CC#N)ccc1OCCOc1ccc(F)cc1` showed a melting point of 126 to 128 °C.

`O=C(Nc1ccccc1)c1ccc(CSc2ccc(O)cc2)cc1`: the melting point was 220 to 222 °C.

`COCCOc1cc([N+](=O)[O-])c2[nH]c(C3=NCC(C(OC)OC)S3)cc2c1` (stereo not drawn): the melting point was in the range of 100 to 101 °C.

In turn, `CCS(=O)(=O)N=CNCc1cccc(-c2csc(N=C(N)N)n2)n1` came in with a melting point of 201 °C.

The molecule `COc1cc2c(cc1C(O)COc1ccc(C(=O)O)c(O)c1)C(C)(C)CCC2(C)C` (stereo not drawn) yielded a melting point of 178 to 179 °C.

Turning to `COc1ccc(-c2nc(C(F)(F)F)cn2-c2ccc(C#N)cc2)cc1`, the melting point lay within 146 to 148 °C.

As to `CC(=O)OCC(CCn1cnc2c(=O)[nH]c(N)nc21)COC(C)=O`, the melting point was 202 to 205 °C.

`C(=Cc1ccc(-c2cnc(CSCCOc3ccccc3)o2)cc1)CN1CCCC1` showed a melting point of 73 to 75 °C.

`O=c1[nH]c2c(Cl)cccc2s1` registered a melting point of 203 to 204 °C.

For the molecule `CN(C)C(N)=Nc1cc(C#N)ccc1N1CCOCC1`, the melting point is 125 to 127 °C.

The molecule `CC(=O)n1cc(Cl)c(-c2ccccc2Cl)c1` returned a melting point of 82 to 84 °C.

Molecule `CCC(=O)NCCC1CCc2cc(Br)c3c(c21)CCCO3` (stereo not drawn) had a melting point of 114 to 116 °C.

`Cc1ccc(Oc2ccccc2-c2noc(=O)[nH]2)c(O)c1`: the melting point was in the range of 213 to 214 °C.

As to `O=C=NC(=O)SCc1ccccc1`, the melting point lay within 140 to 145 °C.

The molecule `O=C1Nc2ccccc2N(C(=O)CCCCl)c2ccccc21` returned a melting point of 151 to 152 °C.

The molecule `CCN(CC)S(=O)(=O)c1cc2c(ccc3nc(N)[nH]c(=O)c32)cc1Br` displayed a melting point above 250 °C.

Consider `CCCCCCCC(=O)OCCc1c(-c2ccccc2)nc(NC(C)=O)n2ncnc12`, for which the melting point fell in the range of 69 to 70 °C.

Take `CC1=NC(C)(C)SC1=NOC(=O)N(C)C`: the melting point lay in the range of 92 to 95 °C.

Regarding `O=P1(c2cccc(C(F)(F)F)c2)OCc2ccccc21` (stereo not drawn), the melting point was 102 to 106 °C.

For orientation: melting point means the temperature of the solid-liquid transition.
